From publication PMC3726599, “A Metabolically-Stabilized Phosphonate Analog of Lysophosphatidic Acid Attenuates Collagen-Induced Arthritis” (PLoS ONE, 2013)

Experiments:
[1] = system: non-small cell lung cancer xenograft; set-up: method as in PMID 20143443; details: three-dimensional non-small cell lung cancer xenograft; cited from earlier work
LPA1 = details: Ca++ mobilization, RH7777 cells; kind of constant not given; read-out: inhibition of LPA1; cited from earlier work
plasma LPA levels = assay: In vivo plasma LPA and LPC levels (HPLC-MS/MS); set-up: species or system mouse; details: 10 mg/kg i.p.
Protocol: BrP-LPA, LPA species (C14:0, C16:0, C18:0, C18:1 and C20:4) and LPC species (C14:0, C16:0, C18:0, C18:1 and C20:0) were measured in plasma with HPLC-ESI/MS/MS using RSLCnano system (Ultimate 3000) coupled in-line with an LTQ Orbitrap XL mass spectrometer (Thermo Scientific, Waltham, MA, USA). BrP-LPA and lipid (LPA, LPC) extraction from plasma was performed on ice according to the Folch method with minor modifications. Plasma samples (50 ul) were mixed with 950 ul PBS prior to extraction and spiked with the internal standard mix (17:1 LPA/LPC). Samples were extracted under neutral conditions with 4 ml of ice-cold CHCl3/CH3OH (2/1, v/v) followed by 2 ml of PBS-saturated ice-cold CHCl3/CH3OH (2/1, v/v). Each extraction step was followed by a 60 s vortex and a 1 min centrifugation step in a bench-top clinical centrifuge in a cold room at 4°C at 3,000 rpm. The lower chloroform organic phases from both neutral extraction steps were pooled and kept for LPC measurement. The remained aqueous phase was chilled on ice for 10 min and extracted twice with ice-cold acidified with acetic acid CHCl3/CH3OH (2/1, v/v) as above. The lower organic phases were pooled, neutralized to pH 6–7 (checked with pH paper as above) on ice and kept for LPA, BrP-LPA measurements. The kept neutral lower organic phase of neutral extraction and the neutralized acidified lower organic phase were evaporated to dryness. The resulting residues were resuspended in 0.15 ml of isopropanol and after brief vortex mixing the solution was transferred to the auto sampler vial. Recovery of LPA species was between 60% and 95%. Recovery of BrP-LPA was 70% and the recovery of LPC species was between 80% and 100%. The Relative Standard Deviation (RSD) was less than 7% from the plasma fortified with three different concentrations (0.1, 0.5 and 1 μΜ) of LPAs, (0.1, 1 and 10 μΜ) of BrP-LPA and (0.5, 5 and 50 μΜ) of LPCs. Analysis was performed using a Phenomenex (Phenomenex, Torrance, CA, USA) Luna Silica column (2–250 mm, 5 μm particle size) using a binary gradient program consisting of isopropanol:hexane:100 mM NH4CO2H(aq) 58:40:2 (mobile phase A) and isopropanol:hexane:100 mM NH4CO2H(aq) 50:40:10 (mobile phase B). The mobile phase was delivered at a flow rate of 0.3 ml/min and the total run time was 50 min/sample. […] The precursor ion mass was used for the quantification while lipid identity was confirmed by precursor ion fragmentation using collision induced dissociation (CID). […]
BrP-LPA was administered intraperitoneally (IP) at 10 mg/kg in water to 6–8 week old female mice. […] Plasma samples were then analysed for plasma ATX activity and BrP-LPA/LPA/LPC levels with the TOOS activity assay and HPLC-MS/MS respectively. […]

CCCCCCCCCCCCCCCC(=O)OC[C@@H](O)CC(Br)P(=O)(O)O (stereo partly drawn) [BrP-LPA, 1-bromo-3(S)-hydroxy-4-(palmitoyloxy)butyl-phosphonate]
tumor growth and angiogenesis [1]: inhibit tumor growth and angiogenesis | IC50 (LPA1): 1500 nM | plasma LPC levels (plasma LPA levels): remain unchanged | production of LPA species in plasma (plasma LPA levels): inhibited the production of all LPA species tested except from 14:0 LPA | reduction of total plasma LPA levels (plasma LPA levels; 1 hour post administration): 82% | LPA levels, % of normal initial levels (plasma LPA levels; sixteen hours post administration): 60–70%
